ChEMBL document CHEMBL5543136, “Discovery of Novel Heterotricyclic Compounds as DNA-Dependent Protein Kinase (DNA-PK) Inhibitors with Enhanced Chemosensitivity, Oral Bioavailability, and the Ability to Potentiate Cancer Immunotherapy” (J Med Chem, 2024)
The source made the active and inactive calls. The calls are words filed in the database; no cut-off is given here.

Key:
[1] = Toxicity in C57BL/6 mouse implanted with mouse B16-F10 cells assessed as change in liver histopathology at 10 mg/kg, ip administered once daily for 13 days by H&E staining based analysis; format: organism-based; settings: in vivo, 312 h, time 13 day
[2] = Tmax in male Sprague-Dawley rat at 2 mg/kg, iv measured after 48 hrs by LC-MS/MS analysis; format: ADME, organism-based; settings: in vivo
[3] = Clearance in male Sprague-Dawley rat at 2 mg/kg, iv measured after 48 hrs by LC-MS/MS analysis; format: ADME, organism-based; settings: in vivo
B16-F10 [4] = experiment: Immunomodulatory activity in mouse B16-F10 cells implanted in C57BL/6 mouse assessed as percentage of CD3 positive CD8 positive cells in tumor at 10 mg/kg, ip administered once daily for 13 days by flow cytometric analysis (reference value: 0.99%); format: functional; settings: time 13 day
[5] = C0 in male Sprague-Dawley rat at 2 mg/kg, iv measured after 48 hrs by LC-MS/MS analysis; format: ADME, organism-based; settings: in vivo
[6] = Toxicity in C57BL/6 mouse implanted with mouse B16-F10 cells assessed as change in heart histopathology at 10 mg/kg, ip administered once daily for 13 days by H&E staining based analysis; format: organism-based; settings: in vivo, 312 h, time 13 day
CT26 [7] = experiment: Antitumor activity against mouse CT26 cells implanted in BALB/c mouse assessed as reduction in tumor volume at 10 mg/kg, ip administered once daily for 21 days relative to control; format: functional; set-up: scale not given: the % may be the effect or the level left; settings: time 21 day
[8] = Toxicity in C57BL/6 mouse implanted with mouse B16-F10 cells assessed as change in kidney histopathology at 10 mg/kg, ip administered once daily for 13 days by H&E staining based analysis; format: organism-based; settings: in vivo, 312 h, time 13 day
Jurkat = experiment: Induction of cell cycle arrest in human Jurkat cells assessed as decrease in S phase cells at 1 uM incubated for 24 hrs in presence of doxorubicin by PI staining based flow cytometric analysis; format: functional
B16-F10 [9] = experiment: Immunomodulatory activity in mouse B16-F10 cells implanted in C57BL/6 mouse assessed as percentage of CD3 positive CD4 positive cells in tumor at 10 mg/kg, ip QD co-administered with PD-L1 antibody for 13 days by flow cytometric analysis (reference value: 0.86%); format: functional; settings: time 13 day
[10] = Half-life in male Sprague-Dawley rat at 10 mg/kg, po measured after 48 hrs by LC-MS/MS analysis; format: ADME, organism-based; settings: in vivo
[11] = Toxicity in BALB/c mouse implanted with mouse CT26 cells assessed as weight loss at 10 mg/kg, ip QD co-administered with doxorubicin for 21 days; format: organism-based; settings: in vivo, 504 h, time 21 day
CT26 [12] = experiment: Antitumor activity against mouse CT26 cells implanted in BALB/c mouse assessed as reduction in tumor weight by measuring tumor growth inhibition at 10 mg/kg, ip QD co-administered with doxorubicin for 21 days relative to control; format: functional; settings: CT26, 504 h, time 21 day, read-out: TGI
Cell membrane = experiment: Induction of mitochondrial membrane potential loss in human Jurkat cells at 1 uM incubated for 24 hrs by JC-1 staining based flow cytometric analysis; format: cell membranes
[13] = Toxicity in C57BL/6 mouse implanted with mouse B16-F10 cells assessed as change in lung histopathology at 10 mg/kg, ip administered once daily for 13 days by H&E staining based analysis; format: organism-based; settings: in vivo, 312 h, time 13 day
CT26 [14] = experiment: Antitumor activity against mouse CT26 cells implanted in BALB/c mouse assessed as reduction in tumor volume by measuring tumor growth inhibition at 10 mg/kg, ip QD co-administered with doxorubicin for 21 days relative to control; format: functional; settings: CT26, 504 h, time 21 day, read-out: TGI
B16-F10 [15] = experiment: Antitumor activity against mouse B16-F10 cells implanted in C57BL/6 mouse assessed as tumor growth inhibition at 10 mg/kg, ip QD co-administered with SWS1 for 13 days relative to control; format: functional; settings: B16-F10, 312 h, time 13 day, read-out: TGI
[16] = Toxicity in C57BL/6 mouse implanted with mouse B16-F10 cells assessed as effect on body weight at 10 mg/kg, ip QD co-administered with SWS1 for 13 days; format: organism-based; settings: in vivo, 312 h, time 13 day

In the case of `Cc1cc2cccnc2cc1Nc1ncc2c(n1)N(C1CCOCC1)Cc1nncn1-2`, the Activity [1] is reported as “Non-Toxic”, the Tmax [2] is reported as 4.98 min and the clearance [3] is reported as 55 mL/min/kg. The Activity (B16-F10 [4]) was 1.12%, the C0 at 48 h [5] was 1000 ng/mL and the Activity [6] was “Non-Toxic”. The Activity (CT26 [7]) was 32.1%, the Activity [8] was “Non-Toxic” and the Activity (Jurkat) was “Active”. For the same molecule, the Activity (B16-F10 [9]) was 4.06%, the half-life [10] was 2 h and the Activity [11] was “Non-Toxic”. The inhibition in vivo at 10 mg/kg (CT26 [12]) was 50.2%, the Activity (Cell membrane) was “inactive” and the Activity [13] was “Non-Toxic”. For the same molecule, the inhibition in vivo at 10 mg/kg (CT26 [14]) was 59.5%, the inhibition in vivo at 10 mg/kg (B16-F10 [15]) was 63.2% and the Activity [16] was “Non-Toxic”.
